In EPA's ToxValDB 9.5:
Where “and” joins values, the source holds several entries; their conditions need not be identical. Equal entries are not always repeated. Each block holds one compound with its values, some of them ahead of it.

System: Rattus norvegicus
[1] = reproduction developmental, duration: 9 days, inhalation, F, Crl:CD(SD) BR, generation: P0, P0: Whole Body: Maternal Body Weight Change
[2] = reproduction developmental, duration: 9 days, inhalation, F, Sprague-Dawley, generation: P0, P0: General Toxicity: Whole Body: Clinical Observations + P0: General Toxicity: Whole Body: Maternal Body Weight Change
[3] = short-term, duration: 4 weeks, inhalation, F, Wistar, Multi-organ: Inorganic Phosphorous (PHOS), Blood
[4] = short-term, duration: 4 weeks, inhalation, M, Wistar, Blood: Partial Thromboplastin Time (PTT) + Liver: Cytoplasmic Vacuolation, Fatty Hepatocellular
[5] = subchronic, duration: 90 days, inhalation, F, RccHan (Wist), Blood: Large Unstained Cells + Blood: Lymphocyte + Blood: Monocytes
[6] = subchronic, duration: 90 days, inhalation, F, Wistar, General Toxicity: Whole Body: Body Weight Change + Immune: Blood: Large Unstained Cells + Immune: Blood: Lymphocyte + Immune: Blood: …
[7] = subchronic, duration: 90 days, inhalation, F, Wistar, Immune: Blood: Large Unstained Cells + Immune: Blood: Lymphocyte + Immune: Blood: Monocytes + Immune: Blood: White Blood Cell (WBC)
[8] = subchronic, duration: 90 days, inhalation, M/F, Wistar, Immune: Blood: Basophils + Immune: Blood: Eosinophils + Immune: Blood: Neutrophils
[9] = subchronic, duration: 90 days, inhalation, M, RccHan (Wist), Blood: Lymphocyte + Blood: Monocytes + Blood: White Blood Cell (WBC)
[10] = subchronic, duration: 90 days, inhalation, M, Wistar, General Toxicity: Whole Body: Body Weight Change + Immune: Blood: Large Unstained Cells + Immune: Blood: Lymphocyte + Immune: Blood: …
[11] = subchronic, duration: 90 days, inhalation, M, Wistar, Immune: Blood: Large Unstained Cells + Immune: Blood: Lymphocyte + Immune: Blood: Monocytes + Immune: Blood: White Blood Cell (WBC)
[12] = short-term, duration: 3 days, injection, subcutaneous, F, Crj:CD, uterus: uterine dry weight (absolute)
[13] = short-term, duration: 3 days, injection, subcutaneous, F, Sprague-Dawley, uterus: absolute blotted uterine weight
[14] = short-term, duration: 10 days, oral, gavage, M, BrlHan:WIST, body weight
[15] = short-term, duration: 10 days, oral, gavage, M, BrlHan:WIST, male accessory sex gland: BC/LA weight (relative)
[16] = short-term, duration: 10 days, oral, gavage, M, BrlHan:WIST, male accessory sex gland: relative bulbourethral gland weight in the presence of TP + male accessory sex gland: relative seminal vesicle …
[17] = short-term, duration: 10 days, oral, gavage, M, BrlHan:WIST, male accessory sex gland: relative ventral prostate weight in the presence of TP
[18] = short-term, duration: 28 days, oral, gavage, F, Sprague-Dawley, Liver: Liver Weight, Absolute + Liver: Liver Weight, Relative + Thyroid: Thyroid Gland Weight, Relative + Whole Body: Body Weight, Absolute…
[19] = short-term, duration: 28 days, oral, gavage, F, Sprague-Dawley, Pituitary: Thyroid stimulating hormone (TSH) + Thyroid: Thyroxine (T4), Free (Free T4)
[20] = short-term, duration: 28 days, oral, gavage, M, Sprague-Dawley, Epididymis: Epididymis Weight, Absolute + Epididymis: Epididymis Weight, Relative + Liver: Liver Weight, Relative + Liver: Liver, Abnormal …
[21] = short-term, duration: 28 days, oral, gavage, M, Sprague-Dawley, Epididymis: Epididymis, Abnormal Size + Pituitary: Thyroid stimulating hormone (TSH) + Prostate: Prostate, Abnormal Size + Seminal Vesicles…

NEL (reproduction developmental, duration: 9 days, inhalation, F, Crl:CD(SD) BR, generation: P0, P0: Liver: Liver Weight, Unspecified + P0: Ovary: Corpora Lutea + P0: Uterus: Implantation + P0: Uterus: Resorptions, Early + P0: Uterus: …): 704000 mg/m3 and 705000 mg/m3 | NEL (short-term, duration: 4 weeks, inhalation, F, Wistar, Adrenal: Adrenal Gland Weight, Absolute + Adrenal: Adrenal Gland Weight, Relative + Blood: Partial Thromboplastin Time (PTT) + Blood: …): 101000 mg/m3 | LEL [3]: 101000 mg/m3 | NEL [3]: 20100 mg/m3 | NEL (short-term, duration: 4 weeks, inhalation, M, Wistar, Adrenal: Adrenal Gland Weight, Absolute + Adrenal: Adrenal Gland Weight, Relative + Blood: Prothrombin Time (PT) + Kidney: Kidney Weight, …): 101000 mg/m3 | LEL [4]: 101000 mg/m3 | NEL [4]: 20100 mg/m3 | LEL [5]: 30600 mg/m3 | NEL [5]: 10100 mg/m3 | NEL (subchronic, duration: 90 days, inhalation, M/F, RccHan (Wist), Blood: Activated Partial Thromboplastin Time (APTT) + Blood: Basophils + Blood: Calcium (CA), Blood + Blood: Chloride (CL), Blood + Blood: …): 103000 mg/m3 | LEL [9]: 103000 mg/m3 | NEL [9]: 30600 mg/m3
Structure (SMILES): C=CC(F)(F)C(F)(F)C(F)(F)C(F)(F)F [3,3,4,4,5,5,6,6,6-Nonafluorohexene]
NEL (developmental, duration: 9 days, inhalation, M/F, Crl:CD(SD) BR, generation: F1, F1: Uterus: Fetuses, Dead + F1: Uterus: Fetuses, Live + F1: Whole Body: Body Weight, Fetal + F1: Whole Body: External Abnormalities + F1: …): 704000 mg/m3 and 705000 mg/m3 | LOAEL (developmental, duration: 9 days, inhalation, Sprague-Dawley, generation: F1, F1: Developmental: Skeleton: Skeletal Malformation + F1: Developmental: Skeleton: Skeletal Ossification Variations + F1: Developmental: Soft…): 705000 mg/m3 and 704000 mg/m3 | NOAEL (developmental, duration: 9 days, inhalation, Sprague-Dawley, generation: F1, F1: Developmental: Whole Body: External Abnormalities): 70000 mg/m3 | LEL [1]: 704000 mg/m3 and 705000 mg/m3 | NEL [1]: 10100 mg/m3 | LOAEL (reproduction developmental, duration: 9 days, inhalation, F, Sprague-Dawley, generation: P0, P0: Developmental: Uterus: Implantation + P0: Developmental: Uterus: Resorptions, Early + P0: Developmental: Uterus: Resorptions, Late + P0…): 705000 mg/m3 and 704000 mg/m3 | LOAEL [2]: 705000 mg/m3 and 704000 mg/m3 | NOAEL [2]: 10100 mg/m3 | NEL (subchronic, duration: 90 days, inhalation, F, RccHan (Wist), Blood: White Blood Cell (WBC) + Whole Body: Body Weight Change): 103000 mg/m3 | NOAEL (subchronic, duration: 90 days, inhalation, F, Wistar, General Toxicity: Whole Body: Body Weight Change): 103000 mg/m3 | LOAEL [6]: 30600 mg/m3 | NOAEL [6]: 10100 mg/m3 | LOAEL [7]: 30600 mg/m3 | NOAEL [7]: 10100 mg/m3 | LOAEL (subchronic, duration: 90 days, inhalation, M/F, Wistar, Endocrine: Blood: Glucose (GLU) + Endocrine: Blood: Triglycerides (TRIG) + Endocrine: Serum: Cholesterol (CHOL), Total + General Toxicity: …): 30600 mg/m3 | LOAEL [8]: 30600 mg/m3 | NOAEL [8]: 10100 mg/m3 | NEL (subchronic, duration: 90 days, inhalation, M, RccHan (Wist), Blood: Large Unstained Cells + Whole Body: Body Weight Change): 103000 mg/m3 | NOAEL (subchronic, duration: 90 days, inhalation, M, Wistar, General Toxicity: Whole Body: Body Weight Change): 103000 mg/m3 | LOAEL [10]: 30600 mg/m3 | NOAEL [10]: 10100 mg/m3 | LOAEL [11]: 30600 mg/m3 | NOAEL [11]: 10100 mg/m3

Structure (SMILES): CCC(C)(c1ccc(O)cc1)c1ccc(O)cc1 [Bisphenol B]
LOEL [12]: 200 mg/kg-day | NOEL [12]: 20 mg/kg-day | LOEL [13]: 200 mg/kg-day | NOEL [13]: 20 mg/kg-day | LOEL [14]: 600 mg/kg-day | NOEL [14]: 200 mg/kg-day | NOEL (short-term, duration: 10 days, oral, gavage, M, BrlHan:WIST, body weight in the presence of TP + body weight the absence of TP + male accessory sex gland: relative bulbourethral gland weight in the …): 600 mg/kg-day | LOEL [15]: 200 mg/kg-day | NOEL [15]: 50 mg/kg-day | NOEL (short-term, duration: 10 days, oral, gavage, M, BrlHan:WIST, male accessory sex gland: Cowper's gland weight (relative) + male accessory sex gland: glans penis weight (relative) + male accessory sex …): 600 mg/kg-day | LOEL [16]: 600 mg/kg-day | NOEL [16]: 200 mg/kg-day | LOEL [17]: 200 mg/kg-day | NOEL [17]: 50 mg/kg-day

Structure (SMILES): FC(F)(I)C(F)(F)C(F)(F)C(F)(F)I [Perfluoro-1,4-diiodobutane]
LOAEL [18]: 30 mg/kg-day | NOAEL [18]: 10 mg/kg-day | NOAEL (short-term, duration: 28 days, oral, gavage, F, Sprague-Dawley, Liver: Liver, Abnormal Area(s) + Liver: Liver, Abnormal Shape + Multi-organ: Follicle stimulating hormone (FSH) + Multi-organ: Luteinizing …): 30 mg/kg-day | LOAEL [19]: 10 mg/kg-day | NOAEL [19]: 3 mg/kg-day | LOAEL [20]: 30 mg/kg-day | NOAEL [20]: 10 mg/kg-day | LOAEL [21]: 10 mg/kg-day | NOAEL [21]: 3 mg/kg-day | NOAEL (short-term, duration: 28 days, oral, gavage, M, Sprague-Dawley, Liver: Liver Weight, Absolute + Liver: Liver, Abnormal Area(s) + Liver: Liver, Abnormal Shape + Liver: Liver, Abnormal Size + Multi-organ: …): 30 mg/kg-day | LOAEL (short-term, duration: 28 days, oral, gavage, M, Sprague-Dawley, Thyroid: Triiodothyronine, Free (Free T3)): 1 mg/kg-day
